Experimental findings from ChEMBL document CHEMBL5620413, “Novel pterostilbene derivatives ameliorate heart failure by reducing oxidative stress and inflammation through regulating Nrf2/NF-κB signaling pathway” (Eur J Med Chem, 2023) are described below.

The structures appear in SMILES notation. Active and inactive are the calls of the source. No cut-off for these calls is given here.

The subject of test [1] is RAW264.7. The experiment in a line: Antiinflammatory activity in mouse RAW264.7 cells assessed as LPS-induced NO production preincubated for 1 hr followed by LPS treatment for 24 hrs by Griess reagent based assay. In kind it is functional. The note with it: time 25 hrs.
The test system of test [2] is RAW264.7. Nature of the test: Antiinflammatory activity in mouse RAW264.7 cells assessed as decrease in LPS-induced NO production preincubated for 1 hr followed by LPS treatment for 24 hrs by Griess reagent based assay. Format: functional, cell-based. The note with it: dose <= 10.0 µM, time 25.0 hrs.
In test [3] the test system is RAW264.7. Nature of the test: Inhibition of ROS generation in mouse RAW264.7 cells preincubated for 1 hr followed by LPS treatment for 24 hrs by DCFH-DA dye based analysis. Format: functional, cell-based. The note with it: dose <= 10.0 µM, time 25.0 hrs.
In test [4] the test system is RAW264.7. The experiment in a line: Inhibition of ROS generation in mouse RAW264.7 cells preincubated for 1 hr followed by DOX treatment for 12 hrs by DCFH-DA dye based analysis. In kind it is functional, cell-based. The note with it: dose <= 10.0 µM, time 13.0 hrs.
Test [5] concerns H9c2. The experiment in a line: Inhibition of ROS generation in rat H9c2 cells preincubated for 1 hr followed by DOX treatment for 12 hrs by DCFH-DA dye based analysis. Format: functional, cell-based. The note with it: dose <= 10.0 µM, time 13.0 hrs.
Test [6] has as its system RAW264.7. Nature of the test: Inhibition of ROS generation in mouse RAW264.7 cells assessed as increase in DOX-reduced Nrf2 expression upto 10 uM preincubated for 1 hr followed by DOX treatment for 12 hrs by Western blot analysis. In kind it is functional, cell-based. The note with it: time 13.0 hrs. In general terms: In western blotting, separated proteins are transferred to a membrane and probed.

The subject of test [7] is H9c2. The experiment in a line: Inhibition of ROS generation in rat H9c2 cells assessed as increase in DOX-reduced Nrf2 expression upto 10 uM preincubated for 1 hr followed by DOX treatment for 12 hrs by Western blot analysis. The note with it: time 13.0 hrs. In kind it is functional, cell-based.
Test [8] relates to H9c2. Nature of the test: Inhibition of ROS generation in rat H9c2 cells assessed as increase in DOX-reduced CAT expression upto 10 uM preincubated for 1 hr followed by DOX treatment for 12 hrs by Western blot analysis. In kind it is functional, cell-based. The note with it: time 13.0 hrs.
In test [9] the test system is RAW264.7. The experiment in a line: Inhibition of ROS generation in mouse RAW264.7 cells assessed as increase in DOX-reduced GPX1 expression upto 10 uM preincubated for 1 hr followed by DOX treatment for 12 hrs by Western blot analysis. Format: functional, cell-based. The note with it: time 13.0 hrs.
Test [10] concerns RAW264.7. Nature of the test: Antiinflammatory activity against mouse RAW264.7 cells assessed as decrease in LPS-induced IL-1beta mRNA expression upto 10 uM preincubated for 1 hr followed by LPS treatment for 24 hrs by qRT-PCR analysis. In kind it is functional, cell-based. The note with it: time 25.0 hrs. Background: In qPCR the cycle at which signal appears reflects the starting amount.

In test [11] the test system is H9c2. The experiment in a line: Antiinflammatory activity against rat H9c2 cells assessed as decrease in DOX-induced IL-1beta expression upto 10 uM preincubated for 1 hr followed by DOX treatment for 12 hrs by Western blot analysis. In kind it is functional, cell-based. The note with it: time 13.0 hrs.
For test [12], the system named is H9c2. The experiment in a line: Antiinflammatory activity against rat H9c2 cells assessed as decrease in DOX-induced TNF-alpha expression upto 10 uM preincubated for 1 hr followed by DOX treatment for 12 hrs by Western blot analysis. Format: functional, cell-based. The note with it: time 13.0 hrs.
The test system of test [13] is RAW264.7. The experiment in a line: Antiinflammatory activity against mouse RAW264.7 cells assessed as decrease in LPS-induced NF-kappaB phosphorylation upto 10 uM preincubated for 1 hr followed by LPS treatment for 24 hrs by Western blot analysis. In kind it is functional, cell-based. The note with it: time 25.0 hrs.
For test [14], the system named is RAW264.7. Nature of the test: Antiinflammatory activity against mouse RAW264.7 cells assessed as decrease in DOX-induced NF-kappaB phosphorylation upto 10 uM preincubated for 1 hr followed by DOX treatment for 12 hrs by Western blot analysis. In kind it is functional, cell-based. The note with it: time 13.0 hrs.
In test [15] the test system is H9c2. The experiment in a line: Antiinflammatory activity against rat H9c2 cells assessed as decrease in DOX-induced NF-kappaB phosphorylation upto 10 uM preincubated for 1 hr followed by DOX treatment for 12 hrs by Western blot analysis. In kind it is functional, cell-based. The note with it: time 13.0 hrs.
Test [16] relates to Mus musculus. The experiment in a line: Protection against cardiac dysfunction C57BL/6J mouse model assessed as increase in DOX-reduced LVFS at 7 mg/kg, ip administered daily for 4 weeks by echocardiography. Format: functional, organism-based.
For test [17], the system named is Mus musculus. The experiment in a line: Protection against cardiac dysfunction C57BL/6J mouse model assessed as increase in DOX-reduced heart size at 7 mg/kg, ip administered daily for 4 weeks. Format: functional, organism-based.
In test [18] the test system is Mus musculus. Nature of the test: Protection against cardiac dysfunction C57BL/6J mouse model assessed as decrease in DOX-induced serum ALP level at 7 mg/kg, ip administered daily for 4 weeks. In kind it is functional, organism-based.
The subject of test [19] is Mus musculus. The experiment in a line: Protection against cardiac dysfunction C57BL/6J mouse model assessed as decrease in DOX-induced serum LDH level at 7 mg/kg, ip administered daily for 4 weeks. Format: functional, organism-based.
Test [20] has as its system Mus musculus. Nature of the test: Protection against cardiac dysfunction C57BL/6J mouse model assessed as decrease in DOX-induced alpha-SMA expression at 7 mg/kg, ip administered daily for 4 weeks by Western blot analysis. Format: functional, organism-based.
In test [21] the test system is Mus musculus. The experiment in a line: Protection against cardiac dysfunction C57BL/6J mouse model assessed as increase in DOX-reduced cardiac SOD1 expression at 7 mg/kg, ip administered daily for 4 weeks by Western blot analysis. In kind it is functional, organism-based.
The subject of test [22] is Mus musculus. The experiment in a line: Protection against cardiac dysfunction C57BL/6J mouse model assessed as increase in DOX-reduced cardiac SOD2 expression at 7 mg/kg, ip administered daily for 4 weeks by Western blot analysis. In kind it is functional, organism-based.

In the case of `CCCCOc1ccc(/C=C/c2cc(OC)cc(OC)c2C2CC(C)=NN2C(C)=O)cc1` (configuration not stated), the Activity with RAW264.7 [1] was 0.198 µM; in the test with RAW264.7 [2], “Dose-Dependent Effect”. Besides, the inhibition result with RAW264.7 [3], with RAW264.7 [4] and in the test with H9c2 [5] was “Dose-Dependent Effect” throughout. Also, the inhibition result in the test on RAW264.7 [6], with H9c2 [7], in the test with H9c2 [8] and in the test on RAW264.7 [9] was “Active” throughout. In addition, the result with RAW264.7 [10], with H9c2 [11], in the test with H9c2 [12], with RAW264.7 [13], in the test with RAW264.7 [14] and in the test on H9c2 [15] was Active. The result in the test with Mus musculus [16], with Mus musculus [17], in the test on Mus musculus [18], in the test on Mus musculus [19], in the test on Mus musculus [20] and with Mus musculus [21] was Active. In addition, the outcome in the test with Mus musculus [22] was Active.
